# According to patent publication US20090048218A1, “17Beta-CYANO-18A-HOMO-19-NOR-ANDROST-4-ENE DERIVATIVE, ITS USE AND MEDICAMENTS COMPRISING THE DERIVATIVE” (priority 2007, published 2009):
# Like-named read-outs stand apart in the source and are kept apart here.
# Key:
# [1] = molecular target: T1, mineralcorticoid receptor (MR) (Homo sapiens, UniProt P08235); assay: MR antagonism, luciferase reporter cell line assay; format: cell-based
# T1 sequence (P08235 1-984): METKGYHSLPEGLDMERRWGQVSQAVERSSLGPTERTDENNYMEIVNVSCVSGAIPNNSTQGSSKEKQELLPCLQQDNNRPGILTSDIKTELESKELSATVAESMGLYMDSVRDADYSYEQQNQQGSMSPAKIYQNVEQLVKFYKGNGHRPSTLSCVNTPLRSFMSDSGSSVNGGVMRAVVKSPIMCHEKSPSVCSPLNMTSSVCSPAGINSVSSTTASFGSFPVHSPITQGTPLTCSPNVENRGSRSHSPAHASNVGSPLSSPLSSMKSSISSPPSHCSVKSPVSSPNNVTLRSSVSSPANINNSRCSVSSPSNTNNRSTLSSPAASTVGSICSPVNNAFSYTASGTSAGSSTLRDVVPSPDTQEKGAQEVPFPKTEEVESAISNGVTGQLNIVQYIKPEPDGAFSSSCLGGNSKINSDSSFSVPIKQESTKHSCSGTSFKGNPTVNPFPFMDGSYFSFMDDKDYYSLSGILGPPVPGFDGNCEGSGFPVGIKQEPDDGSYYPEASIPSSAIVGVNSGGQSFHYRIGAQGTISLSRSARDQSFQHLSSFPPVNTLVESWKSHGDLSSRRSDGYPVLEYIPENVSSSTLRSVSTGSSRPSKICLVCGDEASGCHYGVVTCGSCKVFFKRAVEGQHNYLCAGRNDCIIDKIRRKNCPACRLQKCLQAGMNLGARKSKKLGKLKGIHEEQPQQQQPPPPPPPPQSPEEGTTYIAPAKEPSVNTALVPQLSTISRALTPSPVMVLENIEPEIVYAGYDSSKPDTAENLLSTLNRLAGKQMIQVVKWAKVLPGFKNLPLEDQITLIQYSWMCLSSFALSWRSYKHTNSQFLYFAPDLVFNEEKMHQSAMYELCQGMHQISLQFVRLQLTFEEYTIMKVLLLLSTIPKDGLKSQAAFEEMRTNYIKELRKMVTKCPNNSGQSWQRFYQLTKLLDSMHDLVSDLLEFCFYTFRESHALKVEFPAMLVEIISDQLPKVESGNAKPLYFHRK
# Procedure: The derivatives according to the invention having the general chemical formula 1 have a very strong gestagenic activity. […] They should therefore have in vivo potassium-retaining, natriuretic (antimeralcorticoid) action. These properties were determined using the test described below:
# For the culturing of the cells used for the assay, the culture medium used was DMEM (Dulbecco's Modified Eagle Medium: […] of glucose; PAA, #E15-009) with 10% FCS (Biochrom, S0115, batch #615B), 4 mM L-glutamine, 1% penicillin/streptomycin, 1 mg/ml of G418 and 0.5 μg/ml of puromycin.
# Reporter cell lines were grown in a density of 4×10^4 cells per hollow in white, nontransparent tissue culture plates in each case having 96 hollows (PerkinElmer, #P12-106-017) and kept in 6% DCC—FCS (activated carbon-treated serum, for the removal of interfering components contained in the serum). The compounds to be investigated were added eight days later, and the cells were incubated with the compounds for 16 hours. The experiments were carried out in triplicate. At the end of the incubation, the effector-containing medium was removed and replaced by lysis buffer. After luciferase assay substrate (promega, #E1501) had been added, the plates containing the 96 hollows were then introduced into a microplate luminometer (Pherastar, BMG labtech), and the luminescence was measured. The IC50 values were evaluated using software for the calculation of dose-activity relationships.
# PR = molecular target: T2, PR (Rattus norvegicus, UniProt Q63449); assay: maintenance of pregnancy test on the rat; format: in vivo; conditions: ovarectomized pregnant rats; for PR in vivo ED50 (pregnancy-maintaining dose): s.c. once daily from day 8 to day 15 or 21, with oestrone 5 μg/kg/day
# T2 construct: The maintenance of pregnancy test on ovarectomized rats serves for the determination of the peripheral gestagenic activity of a compound; from tissue; host or cells: whole animal: pregnant, ovariectomized rats
# T2 sequence (Q63449 1-923): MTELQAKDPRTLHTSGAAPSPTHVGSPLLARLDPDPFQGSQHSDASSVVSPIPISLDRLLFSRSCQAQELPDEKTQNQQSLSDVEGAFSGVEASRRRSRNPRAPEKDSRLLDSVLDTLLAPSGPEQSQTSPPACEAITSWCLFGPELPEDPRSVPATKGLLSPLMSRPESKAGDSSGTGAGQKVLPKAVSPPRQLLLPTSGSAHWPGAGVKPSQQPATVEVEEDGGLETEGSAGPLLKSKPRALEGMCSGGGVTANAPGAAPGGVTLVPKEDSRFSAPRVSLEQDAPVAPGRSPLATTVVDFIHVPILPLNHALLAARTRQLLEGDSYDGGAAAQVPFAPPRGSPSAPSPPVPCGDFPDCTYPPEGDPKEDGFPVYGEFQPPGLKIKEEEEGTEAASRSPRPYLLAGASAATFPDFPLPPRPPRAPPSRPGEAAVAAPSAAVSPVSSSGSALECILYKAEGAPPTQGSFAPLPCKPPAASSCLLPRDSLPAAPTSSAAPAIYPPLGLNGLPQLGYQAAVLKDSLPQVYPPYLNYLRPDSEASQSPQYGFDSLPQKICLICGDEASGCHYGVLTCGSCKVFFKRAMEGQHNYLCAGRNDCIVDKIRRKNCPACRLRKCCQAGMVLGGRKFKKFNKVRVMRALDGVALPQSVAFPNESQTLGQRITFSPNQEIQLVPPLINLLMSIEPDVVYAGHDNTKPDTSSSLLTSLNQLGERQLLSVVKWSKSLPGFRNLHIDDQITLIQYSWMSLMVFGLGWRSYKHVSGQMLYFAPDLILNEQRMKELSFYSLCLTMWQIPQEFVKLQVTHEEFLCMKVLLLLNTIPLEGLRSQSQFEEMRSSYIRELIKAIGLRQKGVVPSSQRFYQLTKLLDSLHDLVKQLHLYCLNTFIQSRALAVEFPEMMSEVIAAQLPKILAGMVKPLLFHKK
# Text: Carrying out the maintenance of pregnancy test on the rat:
# In pregnant rats, the removal of the corpora lutea or oophorectomy induces an abortion. By means of the exogenous administration of progestins (gestagens) in combination with a suitable dose of an oestrogen, the maintenance of pregnancy is possible. The maintenance of pregnancy test on ovarectomized rats serves for the determination of the peripheral gestagenic activity of a compound.
# Rats were paired overnight during proestrus. Pairing was checked on the morning of the following day by the appraisal of a vaginal smear. The presence of the sperm was evaluated here as day 1 of a commencing pregnancy. On day 8 of the pregnancy, the animals were ovarectomized under ether anaesthesia. The treatment with test compound and exogenous oestrogen (oestrone, 5 μg/kg/day) was carried out subcutaneously once daily from day 8 to day 15 or day 21 of the pregnancy. The first administration on day 8 was carried out two hours before oophorectomy. Intact control animals were given exclusively vehicle.
# At the end of the experiment (day 15 or day 21), the animals were sacrificed under a CO2 atmosphere, and live foetuses (foetuses having a beating heart) and implantation sites (early resorptions and dead foetuses including autolysis and atrophic placentas) were counted in both uterine horns. On day 22, it was moreover possible to examine foetuses for malformations. In uteri without foetuses or implantation sites, the number of nidation sites was determined by staining with 10% strength ammonium sulphide solution. The maintenance of pregnancy rate was calculated as the quotient of the number of living foetuses and the total number of nidation sites (both resorbed and dead foetuses and nidation sites). For drospirenone, this value is 3.5 mg/kg/day.
# [2] = reporter cell lines, 16 hours incubation, luciferase luminescence, triplicate
# [3] = reporter cell lines, 16 hours incubation, luciferase luminescence, triplicate, read-out: MR antagonism IC50
Structure (SMILES),IC50 [1] [µM],"MR antagonism activity [% of the maximum effect] [1, 2]",PR in vivo ED50 (pregnancy-maintaining dose) (PR) [mg/kg/d s.c.],"IC50 [1, 3] [µM]","pregnancy-maintaining dose (ED50) (PR; subcutaneous, with oestrone 5 μg/kg/day) [mg/kg/day]"
"CC[C@]12CC[C@H]3[C@@H](CCC4=CC(=O)CC[C@@H]43)[C@@H]1[C@@H]1C[C@@H]1[C@@H]2C#N (single isomer, unassigned) [17β-Cyano-15β,16β-methylene-18a-homo-19-nor-androst-4-en-3-one]",0.018,103.44 % of the maximum effect,0.01,,
"CC[C@]12CC[C@H]3[C@@H]([C@H]4C[C@H]4C4=CC(=O)CC[C@@H]43)[C@@H]1[C@@H]1C[C@@H]1[C@@H]2C#N [17β-Cyano-6β,7β-15β,16β-bismethylene-18a-homo-19-nor-androst-4-en-3-one]",,97.52 % of the maximum effect,0.1,0.0093,
CC[C@]12CC[C@H]3[C@@H]([C@H](C)CC4=CC(=O)CC[C@@H]43)[C@@H]1CC[C@@H]2C#N [17β-Cyano-7α-methyl-18a-homo-19-nor-androst-4-en-3-one],,99.07 % of the maximum effect,,0.016,
"CC[C@]12CC[C@H]3[C@@H]([C@@H]4C[C@@H]4C4=CC(=O)CC[C@@H]43)[C@@H]1[C@@H]1C[C@@H]1[C@]2(C)C#N [17β-Cyano-17α-methyl-6α,7α-methylene-15β,16β-methylene-18a-homo-19-nor-androst-4-en-3-one]",,89.49 % of the maximum effect,1.1,0.1,
"CC[C@]12CC[C@H]3[C@@H](CCC4=CC(=O)CC[C@@H]43)[C@@H]1[C@@H]1C[C@@H]1[C@]2(C)C#N [17β-Cyano-17α-methyl-15β,16β-methylene-18a-homo-19-nor-androst-4-en-3-one]",,64.87 % of the maximum effect,0.1,0.00048,
CC[C@]12CC[C@H]3[C@@H](CCC4=CC(=O)CC[C@@H]43)[C@@H]1CC[C@@H]2C#N [17β-Cyano-18a-homo-19-nor-androst-4-en-3-one],,94.48 % of the maximum effect,2.3,0.0091,
"C[C@]12CCC(=O)C=C1[C@@H]1C[C@@H]1[C@H]1[C@@H]3[C@@H]4C[C@@H]4[C@@]4(CCC(=O)O4)[C@@]3(C)CC[C@@H]12 [drospirenone, 6β, 7β-15β,16β-dimethylene-3-oxo-17-pregn-4-ene-21,17β-carbolactone, reference compound]",,,,,3.5
